Assay: Particle size of the levetiracetam used
Format: physicochemical
Details: levetiracetam used in the examples
Protocol: In order to avoid possible handling difficulties, the levetiracetam used preferably comprises particles having a particle size distribution such that d(0.1) is Not Less Than (NLT) about 0.6 μm, d(0.5) is from about 10 to about 30 μm, and d(0.9) is Not More Than (NMT) about 65 μm. In addition, the Bulk Density is NLT 0.2 g/cm^3, and the Tapped Density is NLT 0.35 g/cm^3. […] To minimize the impact of particle size on the levetiracetam release rate, a disintegrant was added intra- and extra-granularly. Although the resulting dissolution rate is somewhat slower than that of the commercial product, the product of present invention is found to be bio-equivalent to the marketed product in both fasting and food bio-equivalent studies.

Particle size: about 50 μm
Structure (SMILES): CC[C@@H](C(N)=O)N1CCCC1=O [levetiracetam, (−)-(S)-(alpha)-ethyl-2-oxo-1-pyrrolidine acetamide]
